# Reference: US11179348B2, “Combination comprising pterostilbene for the treatment of cancer” (FUNDACIÓN UNIVERSIDAD CATÓLICA DE VALENCIA SAN VICENTE …, priority 2015, dated 2021)
# Marks after values point to notes of the source that are not given here.
# Tests used:
# ACTH = test: Plasma ACTH levels (ELISA) in tumor-bearing mice; type: in vivo; details: 6 h circadian time
# Excerpt: (§1) Measurement of ACTH, Corticosterone, and NORA Levels.
# (§2) Plasma levels of ACTH (Calbiotech, Inc., Spring Valley, Calif.), corticosterone (Kamiyama Biomedical Co., Seattle, Wash.), and NORA (IBL, Hamburg, Germany) were quantified by ELISA according to the instructions of the suppliers.
# MeWo melanoma = test: In vivo growth of MeWo melanoma xenografts in nu/nu mice; design: species or system human; details: MeWo-RFP; 35 days after inoculation; Pter 30 mg/kg i.v. every 48 h and/or CRC infusion 0.3 μg/h
# MelJuso melanoma = test: In vivo growth of MelJuso melanoma xenografts in nu/nu mice; design: species or system human; details: MelJuso-RFP; 35 days after inoculation; Pter 30 mg/kg i.v. every 48 h and/or CRC infusion 0.3 μg/h
# AsPC-1 pancreatic cancer = test: In vivo growth of AsPC-1 pancreatic cancer xenografts; design: species or system human; details: AsPC-1-RFP; 28 days after inoculation; Pter and/or CRC
# A2058 melanoma = test: In vivo growth of A2058 melanoma xenografts in nu/nu mice; design: species or system human; details: A2058-RFP
# BxPC-3 pancreatic cancer = test: In vivo growth of BxPC-3 pancreatic cancer xenografts; design: species or system human; details: BxPC-3-RFP; 35 days after inoculation; Pter and/or CRC
# corticosterone = test: Plasma corticosterone levels (ELISA) in tumor-bearing mice; type: in vivo; details: 12 h circadian time
# Excerpt: as §1, §2
# [1] = tested on: glucocorticoid receptors (GR); test: GR content of human cancer cells by [3H]-labeled ligand whole-cell binding assay; details: for GR number: EGCG or Curc 50 mg/kg, ± CRC
# [2] = for deaths in the treated groups: 50 mg/kg i.v. every 48 h
# Description: FIG. 12. Effect of (−)-epigallocatechin-3-gallate (EGCG) or curcumin (Curc) treatment on (A) human melanoma (A2058) and (B) pancreatic cancer (AsPC-1) growth in vivo. EGCG or Curc were administered i.v. every 48 h for a period of 5 weeks, starting 1 week after tumor cell inoculation. For this purpose EGCG was dissolved in physiological saline, whereas Curc was dissolved in DMSO.
# [3] = tested on: AtT-20 pituitary corticotroph tumor cells; test: ACTH production and POMC expression in AtT-20 cells; type: cell-based, mouse; details: results not shown
# Description: FIG. 3. Pterostilbene bioavailability in brain and the pituitary gland, and its effect on ACTH synthesis and POMC expression in AtT-20 cells. […] (B) Effect of pterostilbene on ACTH production by AtT-20 cells in a 24 h-period (measured between 24-48 h or between 48-72 h). […] After the 30 min period, culture flasks were washed out (three times with PBS) and the medium was renewed (controls received identical treatment).
# as §2
# RT-PCR and detection of mRNA was performed as described above. For Western blotting (see also above) POMC mouse monoclonal antibody (clone 2B2) from Origen (Rockville, Md.) were used.
# [4] = tested on: A2058 cells isolated from tumor-bearing mice; test: Chemosensitization of cultured A2058 cells isolated from xenografts; type: cell-based, human; details: isolated A2058 cells without in vivo Pter treatment
# Description: FIG. 5. Chemosensitization effect of GSH depletion (A) or sod1-AS (B) in melanoma cells isolated from Pter-treated mice. Melanoma cells were cultured as in FIG. 1C. PAC.PBP (100 ng/ml) was added to the culture flasks 24 h after seeding. […] Data are mean values±SD for 5-6 different experiments (*p<0.01, comparing all experimental conditions vs controls).
# FIGS. 18-25. Effect of piperlongumine and I-BET762, as GSH depleting and chemosensitizing agents, in in vitro growing human melanoma, pancreatic, breast, lung, liver, prostate, ovarian, and colorectal cancer cells. Cancer cells, isolated from Pter-treated tumor-bearing mice, were cultured as indicated under Methods. Chemotherapy (0.25 μM PAC.PBP in A2058 melanoma and MDA-MB-231 breast carcinoma cells; 0.125 μM PAC.PBP and 25 μM GTB in AsPC-1 pancreatic cancer cells; 1 μM VRB and 15 μM cisPt in A459 lung carcinoma cells; 0.15 μM DXR in HepG2 hepatocellular carcinoma cells; 15 nM DCT in PC-3 prostate carcinoma cells; 0.15 μM PAC.PBP and 25 μM CarboPt in SK-OV-3 ovarian carcinoma cells; 3 μM 5-FU, 1 μM FA and 0.6 μM IRI in HT-29 colorectal carcinoma cells) was added to the cultured flasks 24 h after seeding. PL (1 μM in A2058 and AsPC-1 cells; 0.5 μM in A549 and HT-29 cells; 0.2 μM in HepG2, PC-3, and SK-OV-3 cells; 0.1 μM in MDA-MB-231 cells) or I-BET762 (0.5 μM in HT-29 cells; 0.2 μM in A2058, AsPC-1, HepG2, PC-3, and SK-OV-3 cells; 0.1 μM in A549 and MDA-MB-231 cells) were added 6 h later. Data are mean values±SD for 4-5 different experiments per cell line (*p<0.05 and **p<0.01, comparing all experimental conditions versus control. PL, piperlongumine; PAC.PBP, paclitaxel protein-bound particles; GTB, gemcitabine; DXR, doxorubicin; VRB, vinorelbin; CisPt, cisplatin; docetaxel, DCT; CarboPt, carboplatin; 5-FU, 5-fluoracil; FA, folinic acid; IRI, irinotecan; 5-FU+FA+IRI=FOLFIRI).
# Human A2058, MeWo and MelJuso melanoma cells, and mouse AtT-20 pituitary corticotroph tumor cells were from the American Type Culture Collection (ATCC). Human HEMa-LP epidermal melanocytes were from Life Technologies (Grand Island, N.Y.). Human MDA-MB-231 (triple negative: ER−, PR−, HER2−) and MCF-7 (ER+, PR+, HER2−) breast adenocarcinoma, A549 lung adenocarcinoma (NSCLC), HepG2 hepatocellular carcinoma, LNCaP (AR+) and PC-3 (AR−) prostate adenocarcinoma, SK-OV-3 epithelial ovarian carcinoma, and HT-29 and Caco-2 colorectal carcinoma cells were from the American Type Culture Collection. Cells were grown in Dulbecco's modified Eagle's medium (DMEM) (Invitrogen, San Diego, Calif.), pH 7.4, supplemented with 10% heat-inactivated FCS (Biochrom KG, Berlin, Germany), 100 units/ml penicillin and 100 μg/ml streptomycin. Cells were plated, at a density of 20,000 cells/cm2, and cultured at 37° C. in a humidified atmosphere with 5% CO2. Cells were harvested by incubation for 5 min with 0.05% (w/v) trypsin (Sigma, St. Louis, Mo.) in PBS (10 mM sodium phosphate, 4 mM KCl, 137 mM NaCl), pH 7.4, containing 0.3 mM EDTA, followed by the addition of 10% FCS to inactivate the trypsin. Cell numbers were determined using a Coulter Counter (Coulter Electronic Inc., Miami, Fla.). Cells were allowed to attach for 12 h before any treatment addition. Cellular viability was assessed as previously reported (Mena, S. et al. Clin Cancer Res 13, 2658-2666 (2007)), by measuring trypan blue exclusion and leakage of lactate dehydrogenase activity.
# Isolation of Tumor Cells from Mouse Xenografts Using Enzymatic Digestion and a double Ficoll gradient. […]
# [5] = A2058-bearing mice, day 35, EGCG or Curc 50 mg/kg, ± CRC
# [6] = day 35, EGCG or Curc 50 mg/kg i.v. every 48 h, ± CRC
molecule,measurement,setting,value
"C[C@]12C[C@H](O)[C@H]3[C@@H](CCC4=CC(=O)CC[C@@]43C)[C@@H]1CC[C@@H]2C(=O)CO [CRC, corticosterone, reference compound]",ACTH,"ACTH; AsPC-1-bearing mice, day 28",106 ± 17 pg/mL plasma
same,ACTH,"ACTH; BxPC-3-bearing mice, day 35",55 ± 12 pg/mL plasma
same,Tumor vol.,MeWo melanoma,426 ± 116 mm^3
same,Tumor vol.,MelJuso melanoma,240 ± 94 mm^3
same,Tumor vol.,AsPC-1 pancreatic cancer,1066 ± 235 mm^3
same,Tumor vol.,"A2058 melanoma; 35 days after inoculation, Pter 30 mg/kg i.v. every 48 h and/or CRC infusion 0.3 μg/h",857 ± 185 mm^3
same,Tumor vol.,BxPC-3 pancreatic cancer,588 ± 158 mm^3
same,CRC,"corticosterone; A2058-bearing mice, day 35",205 ± 48 ng/mL plasma
same,CRC,"corticosterone; AsPC-1-bearing mice, day 28",324 ± 48 ng/mL plasma
same,CRC,"corticosterone; BxPC-3-bearing mice, day 35",177 ± 36 ng/mL plasma
same,CRC,"corticosterone; MeWo-bearing mice, day 35",177 ± 29 ng/mL plasma
same,CRC,"corticosterone; MelJuso-bearing mice, day 35",164 ± 41 ng/mL plasma
same,GR number (binding sites/cell),"[1]; A2058-RFP tumors, day 35",80 ± 7 10^3 GR/cell
same,GR number (binding sites/cell),"[1]; AsPC-1-RFP tumors, day 28",67 ± 7 10^3 GR/cell
same,GR number (binding sites/cell),"[1]; BxPC-3-RFP tumors, day 35",134 ± 36 10^3 GR/cell
same,GR number (binding sites/cell),"[1]; MeWo-RFP tumors, day 35",49 ± 7 10^3 GR/cell
same,GR number (binding sites/cell),"[1]; MelJuso-RFP tumors, day 35",46 ± 6 10^3 GR/cell
"COc1cc(/C=C/C(=O)CC(=O)/C=C/c2ccc(O)c(OC)c2)ccc1O [Curc, curcumin, reference compound]",ACTH,ACTH; [5],113 ± 25 pg/mL plasma
same,Tumor vol.,A2058 melanoma; [6],606 ± 126* mm^3
same,CRC,corticosterone; [5],161 ± 17 ng/mL plasma
same,GR number,"[1]; A2058-RFP tumors, day 35",71 ± 12 10^3 GR/cell
same,deaths in the treated groups,[2],did not cause deaths
"O=C(O[C@@H]1Cc2c(O)cc(O)cc2O[C@@H]1c1cc(O)c(O)c(O)c1)c1cc(O)c(O)c(O)c1 [EGCG, (−)-epigallocatechin-3-gallate, reference compound]",ACTH,ACTH; [5],215 ± 36 pg/mL plasma
same,Tumor vol.,A2058 melanoma; [6],894 ± 137 mm^3
same,CRC,corticosterone; [5],243 ± 31 ng/mL plasma
same,GR number,"[1]; A2058-RFP tumors, day 35",77 ± 7 10^3 GR/cell
same,deaths in the treated groups,[2],did not cause deaths
same,deaths in the tumor-bearing groups,[2]; 60 mg/kg i.v. every 48 h,45%
"COc1cc(C=Cc2ccc(OC3OC(C(=O)O)C(O)C(O)C3O)cc2)cc(OC)c1 [Pter-G, Pterostilbene 4′-O-D-glucuronide]",decrease of ACTH production in AtT-20 cells by pterostilbene conjugates,[3],None
"COc1cc(C=Cc2ccc(OS(=O)(=O)O)cc2)cc(OC)c1 [Pter-S, pterostilbene-4′-sulfate]",decrease of ACTH production in AtT-20 cells by pterostilbene conjugates,[3],None
Diethylmaleate [DEM],Cell number,[4]; culture time 24 h,0.49 ± 0.10 ×10^6
same,Cell number,[4]; culture time 36 h,0.51 ± 0.05 ×10^6
same,Cell number,[4]; culture time 48 h,0.56 ± 0.08 ×10^6
same,Cell number,[4]; culture time 72 h,0.67 ± 0.06* ×10^6
